One assay concerns the target T1, human cathepsin F (Homo sapiens, UniProt Q9UBX1).
T1 sequence (Q9UBX1 271-484): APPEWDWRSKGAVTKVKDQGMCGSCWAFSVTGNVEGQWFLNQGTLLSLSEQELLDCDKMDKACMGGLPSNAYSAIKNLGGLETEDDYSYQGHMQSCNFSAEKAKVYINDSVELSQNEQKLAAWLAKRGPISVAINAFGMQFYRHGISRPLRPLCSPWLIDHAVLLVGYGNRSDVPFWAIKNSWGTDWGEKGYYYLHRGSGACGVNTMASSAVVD
Nature of the assay: Cathepsin F assay (hCat F). Type of assay: biochemical. The following applies: Z-Phe-Arg-AMC substrate, pH 5.5, 15 min preincubation; read-out: hCat F (IP (nM)). Summed up: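 Enzyme (10 nM) was preincubated 15 min at room temperature with compounds (1/3 DMSO dilution series, 500–0.025 μM) in 50 mM MES pH 5.5, 2.5 mM EDTA, 2.5 mM DTT, 10% DMSO. Z-Phe-Arg-AMC (8 μM) was added and AMC fluorescence (Ex 360/Em 460 nm) followed for 20 min. % inhibition was fitted to dose-response curves.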

In a further assay the target is human cathepsin K (UniProt P43236). Nature of the assay: Cathepsin K Assay (hrbCat K). The following applies: Z-Leu-Arg-AMC substrate, pH 5.5, 15 min preincubation; read-out: hrbCat K (IP (nM)). It counts as biochemical. Summed up:
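Human cathepsin K (0.4 nM) was preincubated 15 min at room temperature with compound in 50 mM MES pH 5.5, 2.5 mM EDTA, 2.5 mM DTT and 10% DMSO. Inhibition was fitted to a dose-response model.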

In the case of `N#CC1(NC(=O)[C@@H]2CCCC[C@H]2c2nc(-c3ccc(F)cc3)oc2-c2ccc(N3CCS(=O)(=O)CC3)cc2)CC1` [Example 10, (1R,2R)-N-(1-cyanocyclopropyl)-2-(5-(4-(1,1-dioxidothiomorpholino)phenyl)-2-(4-fluorophenyl)oxazol-4-yl)cyclohexanecarboxamide], the values for the IC50 on human cathepsin F and at human cathepsin K were 1110 nM and 2.5 nM, respectively.
Taken in the same sequence, the figures for `N#CC1(NC(=O)[C@@H]2CCCC[C@H]2c2nc(C3CCOCC3)sc2-c2ccc(N3CCS(=O)(=O)CC3)cc2)CC1` [Example 11, (1R,2R)-N-(1-Cyanocyclopropyl)-2-(5-(4-(1,1-dioxidothiomorpholino)phenyl)-2-(tetrahydro-2H-pyran-4-yl)thiazol-4-yl)cyclohexanecarboxamide] were no less than 10000 nM and 3 nM.
Taken in the same sequence, the figures for `Cc1nc([C@@H]2CCCC[C@H]2C(=O)NCC#N)c(-c2ccc(C(=O)N3CCOCC3)cc2)s1` [Example 12, (1R,2R)-N-(cyanomethyl)-2-(2-methyl-5-(4-(morpholine-4-carbonyl)phenyl)thiazol-4-yl)cyclohexanecarboxamide] were 5170 nM and 17 nM.
The corresponding values for `CC(C)(C)c1nc([C@@H]2CC[C@H](F)C[C@H]2C(=O)NC2(C#N)CC2)c(-c2ccc(N3CCS(=N)(=O)CC3)cc2)o1` [Example 13, (1R,2R,5S)-2-(2-(tert-Butyl)-5-(4-(1-imino-1-oxidothiomorpholino)phenyl)oxazol-4-yl)-N-(1-cyanocyclopropyl)-5-fluorocyclohexanecarboxamide] are no less than 10000 nM and 6 nM.
For the compound `CN=S1(=O)CCN(c2ccc(-c3oc(C(C)(C)C)nc3[C@@H]3CC[C@H](F)C[C@H]3C(=O)NC3(C#N)CC3)cc2)CC1` [Example 14, (1R,2R,5S)-2-(2-(tert-Butyl)-5-(4-(1-(methylimino)-1-oxidothiomorpholino)phenyl)oxazol-4-yl)-N-(1-cyanocyclopropyl)-5-fluorocyclohexanecarboxamide], the IC50 on human cathepsin F is no less than 10000 nM; at human cathepsin K it was 5.2 nM.
On to `CC(C)OC(=O)N1CC(c2ccc(-c3sc(-c4ccc(F)cc4)nc3[C@@H]3CCCC[C@H]3C(=O)NC3(C#N)CC3)cc2)C1` [Example 15, Isopropyl 3-(4-(4-((1R,2R)-2-((1-cyanocyclopropyl)carbamoyl)cyclohexyl)-2-(4-fluorophenyl)thiazol-5-yl)phenyl)azetidine-1-carboxylate], for which the IC50 at human cathepsin F was 124 nM; on human cathepsin K, 2.4 nM.
The corresponding values for `N#CC1(NC(=O)[C@@H]2CCCC[C@H]2c2nc(Oc3ccccc3)sc2-c2ccc(N3CCS(=O)(=O)CC3)cc2)CC1` [Example 16, (1R,2R)-N-(1-Cyanocyclopropyl)-2-(5-(4-(1,1-dioxidothiomorpholino)phenyl)-2-phenoxythiazol-4-yl)cyclohexanecarboxamide] are 931 nM and 2.5 nM.
Take `Cc1nc([C@@H]2CCCC[C@H]2C(=O)NCC#N)c(-c2ccc(N3CCS(=O)(=O)CC3)cc2)s1` [Example 17, (1R,2R)-N-(cyanomethyl)-2-(5-(4-(1,1-dioxidothiomorpho-lino)phenyl)-2-methylthiazol-4-yl)cyclohexane-carboxamide]: the IC50 at human cathepsin F was found to be 1140 nM; at human cathepsin K, 2 nM.
The corresponding values for `N#CCNC(=O)[C@@H]1CCCC[C@H]1c1nc(C2CC2)sc1-c1ccc(N2CCS(=O)(=O)CC2)cc1` [Example 18, (1R,2R)-N-(cyanomethyl)-2-(2-cyclopropyl-5-(4-(1,1-dioxidothiomorpho-lino)phenyl)thiazol-4-yl)cyclohexane-carboxamide] are 564 nM and 1.2 nM.
For `CC(C)(C)c1nc([C@@H]2CCCC[C@H]2C(=O)NCC#N)c(-c2ccc(N3CCS(=O)(=O)CC3)cc2)s1` [Example 19, (1R,2R)-2-(2-(tert-butyl)-5-(4-(1,1-dioxidothiomorpho-lino)phenyl)thiazol-4-yl)-N-(cyanomethyl)cyclo-hexanecarboxamide], the IC50 on human cathepsin F was 851 nM; at human cathepsin K it was 0.7 nM.
Regarding `CC(C)(C)c1nc([C@@H]2CCCC[C@H]2C(=O)NC2(C#N)CC2)c(-c2ccc(N3CCS(=O)(=O)CC3)cc2)s1` [Example 20, (1R,2R)-2-(2-(tert-butyl)-5-(4-(1,1-dioxidothiomorpho-lino)phenyl)thiazol-4-yl)-N-(1-cyanocyclopropyl) cyclohexanecarbox-amide], the values for the IC50 at human cathepsin F and at human cathepsin K were 8630 nM and 2.7 nM, respectively.
With `N#CC1(NC(=O)[C@@H]2CC(F)(F)CC[C@H]2c2nc(CC(F)(F)F)sc2-c2ccc(N3CCS(=O)(=O)CC3)cc2)CC1` [Example 21, (1R,2R)-N-(1-cyanocyclopropyl)-2-(5-(4-(1,1-dioxidothiomorpho-lino)phenyl)-2-(2,2,2-trifluoroethyl)thia-zol-4-yl)-5,5-difluorocyclohexane-carboxamide], the IC50 turned out to be 314 nM at human cathepsin F and 1.6 nM on human cathepsin K.
Taken in the same sequence, the figures for `N#CC1(NC(=O)[C@@H]2CCCC[C@H]2c2nc(CC(F)(F)F)sc2-c2ccc(N3CCS(=O)(=O)CC3)cc2)CC1` [Example 22, (1R,2R)-N-(1-cyanocyclopropyl)-2-(5-(4-(1,1-dioxidothiomorpho-lino)phenyl)-2-(2,2,2-trifluoroethyl)thia-zol-4-yl)cyclohexane-carboxamide] were 8520 nM and 6.6 nM.
Taken in the same sequence, the figures for `N#CC1(NC(=O)[C@@H]2CC(F)(F)CC[C@H]2c2nc(CCC(F)(F)F)sc2-c2ccc(N3CCS(=O)(=O)CC3)cc2)CC1` [Example 23, (1R,2R)-N-(1-cyanocyclopropyl)-2-(5-(4-(1,1-dioxidothiomorpho-lino)phenyl)-2-(3,3,3-trifluoropropyl)thia-zol-4-yl)-5,5-difluorocyclohexane-carboxamide] were 223 nM and 1.1 nM.
The corresponding values for `N#CC1(NC(=O)[C@@H]2CCCC[C@H]2c2nc(CCC(F)(F)F)sc2-c2ccc(N3CCS(=O)(=O)CC3)cc2)CC1` [Example 24, (1R,2R)-N-(1-cyanocyclopropyl)-2-(5-(4-(1,1-dioxidothiomorpho-lino)phenyl)-2-(3,3,3-trifluoropropyl)thia-zol-4-yl)cyclohexane-carboxamide] are 2230 nM and 5.6 nM.
For the compound `CC(C)(C)c1nc([C@@H]2CC[C@H](F)C[C@H]2C(=O)NC2(C#N)CC2)c(-c2ccc(N3CCS(=O)(=O)CC3)cc2)s1` [Example 25, (1R,2R,5S)-2-(2-(tert-butyl)-5-(4-(1,1-dioxidothiomorpho-lino)phenyl)thiazol-4-yl)-N-(1-cyanocyclopropyl)-5-fluorocyclohexane-carboxamide], the results for the IC50 on human cathepsin F and at human cathepsin K were 9260 nM and 3.3 nM, respectively.
The corresponding values for `N#CC1(NC(=O)[C@@H]2CC(F)(F)CC[C@H]2c2nc(-c3ccc(F)cc3)sc2-c2ccc(N3CCS(=O)(=O)CC3)cc2)CC1` [Example 26, (1R,2R)-N-(1-cyanocyclopropyl)-2-(5-(4-(1,1-dioxidothiomorpho-lino)phenyl)-2-(4-fluorophenyl)thiazol-4-yl)-5,5-difluorocyclohexane-carboxamide] are 35 nM and 0.3 nM.
For the compound `N#CC1(NC(=O)[C@@H]2CCCC[C@H]2c2nc(-c3ccc(F)cc3)sc2-c2ccc(N3CCS(=O)(=O)CC3)cc2)CC1` [Example 27, (1R,2R)-N-(1-cyanocyclopropyl)-2-(5-(4-(1,1-dioxidothiomorpho-lino)phenyl)-2-(4-fluorophenyl)thiazol-4-yl)cyclohexane-carboxamide], the results for the IC50 at human cathepsin F and at human cathepsin K were 1000 nM and 0.6 nM, respectively.
Taken in the same sequence, the figures for `N#CC1(NC(=O)[C@@H]2CC(F)(F)CC[C@H]2c2nc(-c3ccc(F)cc3)sc2-c2ccc(C(=O)N3CCOCC3)cc2)CC1` [Example 28, (1R,2R)-N-(1-cyanocyclopropyl)-5,5-difluoro-2-(2-(4-fluorophenyl)-5-(4-(morpholine-4-carbonyl)phenyl)thi-azol-4-yl)cyclohexane-carboxamide] were 63 nM and 2.3 nM.
As to `CS(=O)(=O)N1CCN(C(=O)c2ccc(-c3sc(-c4ccc(F)cc4)nc3[C@@H]3CCC(F)(F)C[C@H]3C(=O)NC3(C#N)CC3)cc2)CC1` [Example 29, (1R,2R)-N-(1-cyanocyclopropyl)-5,5-difluoro-2-(2-(4-fluorophenyl)-5-(4-(4-(methylsulfonyl)piperazine-1-carbonyl)phenyl)thi-azol-4-yl)cyclohexane-carboxamide], the results for the IC50 at human cathepsin F and on human cathepsin K were 57 nM and 1.9 nM, respectively.
The corresponding values for `N#CC1(NC(=O)[C@@H]2CC(F)(F)CC[C@H]2c2nc(-c3ccc(F)cc3)sc2-c2ccc(C(=O)N3CCNC(=O)C3)cc2)CC1` [Example 30, (1R,2R)-N-(1-cyanocyclopropyl)-5,5-difluoro-2-(2-(4-fluorophenyl)-5-(4-(3-oxopiperazine-1-carbonyl)phenyl)thi-azol-4-yl)cyclohexane-carboxamide] are 51 nM and 2.2 nM.
The corresponding values for `N#CC1(NC(=O)[C@@H]2CC(F)(F)CC[C@H]2c2nc(-c3ccc(F)cc3)sc2-c2ccc(C(=O)N3CCC(O)CC3)cc2)CC1` [Example 31, (1R,2R)-N-(1-cyanocyclopropyl)-5,5-difluoro-2-(2-(4-fluorophenyl)-5-(4-(4-hydroxypiperidine-1-carbonyl)phenyl)thi-azol-4-yl)cyclohexane-carboxamide] are 73 nM and 3.4 nM.
